Data published in US20120015939A1, “TOPICAL TREATMENT OF NEUROPATHIC PAIN AND METHODS OF DIAGNOSIS” (Arcion Therapeutics, Inc., priority 2010, published 2012).
Read-outs that look alike come from different tables or passages of the source.

How the values were obtained:
[1] = clinical; details: human, in vivo
Source text: In study CLO-027, blood samples for PK analysis were obtained at baseline, and at Weeks 2 and 12 of treatment.

[2] = tested on: painful diabetic neuropathy; details: systemic clonidine by transdermal patches; cross-over; cited from earlier work
[3] = in vivo; cited from earlier work
[4] = topical 0.1% and 0.2% clonidine
Description: The dosage formulation is administered from once a day to several times a day, depending on the patient. […] The dose is determined by the region of pain. […] The area treated is constrained by the systemic dosing.

[5] = tested on: pain associated with painful diabetic neuropathy (PDN)
Description: Pain was assessed each day using a pain diary using a standardized numerical pain rating scale (NPRS). The average pain for each week was calculated and the difference from baseline was determined (week x minus baseline). […] The baseline pain scores were imputed for missing data arising from premature withdrawal from the study (BOCF, baseline observation carried forward).
Capsaicin 0.1% was applied to the pretibial area between the knee and ankle in each patient. The area was occluded for 30 minutes, at which time patients rated the painfulness of the capsaicin stimulus. It was reasoned that in patients with PDN that the afferented group would detect and rate the capsaicin stimulus as painful, while the deafferented group would fail to detect the stimulus.

[6] = tested on: painful diabetic neuropathy; details: cited from earlier work

In the case of `Clc1cccc(Cl)c1N=C1NCCN1` [clonidine], the concentration at 2 weeks [1] is given as 0.017 ng/mL, the concentration at 12 weeks [1] is given as 0.019 ng/mL and the “Difference in pain between clonidine patches and placebo patches” value [2] is given as “no statistically significant difference”. The “Lower threshold blood level considered necessary to treat hypertension” value [3] was 0.200 ng/mL, the Mean blood level [4] was “below 0.1 ng/mg” and the “Patients with no detectable clonidine in the blood” value [4] was “one third of patients had no detectable clonidine in the blood”. The “Efficacy over placebo in relieving diabetic pain (change in NPRS over time)” value (shortened to “Efficacy … (change in NPRS over time)”) ([5]; capsaicin pain rating of two or more, 0 to 10 scale (FIG. 4C)) was “significantly superior to placebo”, the “Efficacy … (change in NPRS over time)” value ([5]; patients who did not detect the capsaicin stimulus (FIG. 4A)) was “no efficacy over placebo” and the “Efficacy … (change in NPRS over time)” value ([5]; subjects who detected capsaicin, pain rating > 0 (FIG. 4B)) was “significantly superior to placebo”. The “Pain reduction relative to placebo” value ([6]; responders rechallenged at highest patch dosage, p<0.015) was “modest although statistically significant” and the “Patients considered clonidine responders” value ([6]; twelve of forty-one patients who completed the initial course of treatment) was 29%.
